Patent US6677377B2, “Structure based discovery of inhibitors of matriptase for the treatment of cancer and other conditions” (Georgetown University School of Medicine, priority 2000, dated 2004)
Entries after “also recorded” stand apart in the source; their conditions may differ. Read-outs that look alike come from different tables or passages of the source.

Experiments:
[1] = target: T1, bovine thrombin (Bos taurus, UniProt P00735); assay: Determination of inhibitory activity, Ki by Dixon plotting, thrombin; assay type: biochemical; conditions: for Ki: substrate N-t-Boc-Leu-Arg-Arg-AMC, pH 8.5, room temperature
T1 construct: bovine thrombin; purchased Sigma (Sigma Chemical Company, St. Louis)
From the text: (§1) Materials. Active matriptase was purified from human milk as will be described later. Active urokinase-type plasminogen activator (uPA) was purified by aminobenzamidine-Sepharose 6B (Amersham Pharmacia, Piscataway, N.J.) from a partially purified uPA from human urine. Bovin β-trypsin, bovine thrombin, and fluorescent peptide substrates N-tert-Butoxy-Carbonyl (N-t-Boc)-Gln-Ala-Arg-7-Amido-4-Methylcoumarin (AMC), N-t-Boc-Leu-Gly-Arg-AMC, and N-t-Boc-Leu-Arg-Arg-AMC were purchased from Sigma (Sigma Chemical Company, St. Louis). Small molecule inhibitors were obtained from the Drug Synthesis & Chemistry Branch, Developmental Therapeutics Program, Division of Cancer Treatment and Diagnosis, National Cancer Institute. Other chemicals are all reagent grade.
(§2) Determination of Inhibitory Activity. Inhibitory activity of compounds against each protease was measured at room temperature using fluorescent substrate peptides in 100 mM Tris-HCl (pH 8.5), containing 100 μg/ml of bovine serum albumin. To a cuvette containing 170 μl buffer was added 10 μl of enzyme solution and 10 μl of inhibitors. After pre-incubation, 10 μl of substrate was added, and the solution was mixed well by shaking the cuvette. The residual enzyme activity was then determined by following the change of fluorescence released by hydrolysis of the fluorescent substrates in a fluorescent spectrophotometer (HITACHI F4500), with excitation at 360 nm and emission at 480 nm. Peptide N-t-Boc-Gln-Ala-Arg-AMC was used as a substrate for matriptase and trypsin, peptide N-t-Boc-Leu-Gly-Arg-AMC was used as a substrate for uPA, and peptide N-t-Boc-Leu-Arg-Arg-AMC was used as a substrate for thrombin.
(§3) Kinetic Screening of Compound Inhibitors. The inhibitory activity of each compound was first investigated by using a fixed (75 μM) concentration both of inhibitor and matriptase. […] We recorded the rate of hydrolysis in duplicate in the presence of 6-7 different concentrations of each inhibitor. A straight line of the concentration of inhibitor versus the reciprocal values of the rate of hydrolysis was plotted with SigmaPlot software. Two lines were obtained from two unsaturated substrate concentrations; the X value of the intersection of these lines gives the value of −Ki.

[2] = target: T2, matriptase (Homo sapiens, UniProt Q9Y5Y6); assay: Determination of inhibitory activity, Ki by Dixon plotting, matriptase; assay type: biochemical
T2 construct: Gels containing the 70-kDa active matriptase was sliced out, and eluted from gel; from tissue; host or cells: human milk
T2 sequence (Q9Y5Y6 615-855 limits assumed): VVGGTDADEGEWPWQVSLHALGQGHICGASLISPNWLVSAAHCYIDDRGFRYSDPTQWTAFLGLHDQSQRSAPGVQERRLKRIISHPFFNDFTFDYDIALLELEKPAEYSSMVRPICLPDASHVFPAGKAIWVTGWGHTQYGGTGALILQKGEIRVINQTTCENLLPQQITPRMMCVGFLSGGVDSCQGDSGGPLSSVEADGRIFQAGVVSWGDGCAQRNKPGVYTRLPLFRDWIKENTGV
T2 sequence (Q9Y5Y6 190-614 partner limits assumed): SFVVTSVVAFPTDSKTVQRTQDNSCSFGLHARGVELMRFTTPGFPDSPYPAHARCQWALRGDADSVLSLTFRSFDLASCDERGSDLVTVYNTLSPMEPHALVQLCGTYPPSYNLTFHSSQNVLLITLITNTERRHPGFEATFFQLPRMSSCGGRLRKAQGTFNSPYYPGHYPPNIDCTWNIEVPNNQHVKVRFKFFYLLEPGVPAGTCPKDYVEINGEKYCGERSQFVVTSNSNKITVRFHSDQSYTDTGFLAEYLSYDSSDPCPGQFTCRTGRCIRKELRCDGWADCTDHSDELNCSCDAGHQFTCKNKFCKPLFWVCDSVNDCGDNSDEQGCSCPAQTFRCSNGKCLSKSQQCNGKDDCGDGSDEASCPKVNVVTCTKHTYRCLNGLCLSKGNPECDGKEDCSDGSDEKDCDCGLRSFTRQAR
From the text: Purification of Active Form Matriptase. Activated matriptase, in a complex with its endogenous inhibitor HAI-1, was purified from human milk by immunoaffinity chromatography, and maintained in its uncomplexed status in glycine buffer pH 2.4, as described previously^11. Matritpase and HAI-1 were further separated by 10% SDS polyacryamide gel electrophoresis. The proteins were stained by Zinc stain Kit (Bio-Rad, Hercules, Calif.). Gels containing the 70-kDa active matriptase was sliced out, and eluted from gel using Electro-Eluter (Bio-Rad, Hercules, Calif.) under non-denatured conditions (Tris-Glysine buffer pH 8.3). Purified, active matriptase was then stored at −80° C. in acid solution.
as §2, §3

[3] = target: T3, urokinase-type plasminogen activator (uPA) (Homo sapiens, UniProt P00749); assay: Determination of inhibitory activity, Ki by Dixon plotting, uPA; assay type: biochemical; conditions: for selectivity between matriptase and uPA (less potent for uPA than for matriptase): ratio of Ki values; for Ki: substrate N-t-Boc-Leu-Gly-Arg-AMC, pH 8.5, room temperature
T3 construct: from tissue; host or cells: human urine
From the text: as §1, §2, §3

[4] = target: T2, matriptase; assay: Matriptase enzyme activity and kinetic parameters with fluorescent peptide substrates; assay type: biochemical
From the text: Purification of active Matriptase_Active matriptase, in the complex form with its endogenous inhibitor HAI-1, was purified from human milk. To separate matriptase from the bound HAI-1, the complex was dissociated by acid and resolved in 10% SDS polyacryamide gel electrophoresis. The proteins were stained by Zinc stain Kit (Bio-Rad, Hercules, Calif.), the 70-kDa active matriptase was sliced out, and eluted from gel using Electro-Eluter (Bio-Rad, Hercules, Calif.) under non-denatured condition (Tris-Glysine buffer pH 8.3).
Determination of matriptase activity_The enzyme activity of matriptase was measured at room temperature in a reaction buffer containing 100 mM Tris-HCl (pH 8.5) and 100_g/ml of BSA using fluorescent peptide as substrate. In brief, 10_l of enzyme solution and 10_l of peptide substrate were added to a cuvette containing 180_l of the reaction buffer. The mixture was mixed well, placed back to a fluorescent spectrophotometer (HITACH F4500), and the release of fluorescence resulting from hydrolysis of the peptide substrate was recorded with excitation at 360 nm and emission at 480 nm.
Determination of kinetic parameter_Substrate concentration versus initial reaction velocity were analyzed by the Michaelis-Menten equation and plotted using SigmaPlot software. Double reciprocal (Lineweaver-Burk) plots thus derived were used to determine Vmax and Km values.
Table 1. Kinetic Parameters of Matriptase for Various Peptide Substrates. […], the release of fluorescence resulting from hydrolysis of the peptide was recorded in a fluorescent spectrophotometer at room temperature with excitation at 360 nm and emission at 480 nm. Km and Vmax were determined by double reciprocal plot derived from Michaelis-Menten equation: […]

[5] = test system: PC-3 prostate cancer tumors; conditions: nude mice; cited from earlier work
[6] = read-out: Ki value against matriptase (bound stated in text)
[7] = substrate N-t-Boc-Gln-Ala-Arg-AMC, pH 8.5, room temperature, read-out: Ki Matriptase
[8] = peptide-AMC substrate hydrolysis by matriptase, room temperature

Ki [1]	Ki [2, 6]	Ki [2, 7]	Ki [3]	Compound	selectivity matriptase versus thrombin/uPA [2]	further results
224 nM	< 1000 nM	924 nM	14400 nM	N=C(N)c1ccc(OCCCCCCOc2ccc(C(=N)N)cc2)cc1 [Compound 1, hexamidine, reference compound]	thrombin selective	selectivity between matriptase and uPA (less potent for uPA than for matriptase) [3]: 16 fold
796 nM	< 1000 nM	191 nM	1980 nM	N=C(N)c1ccc(OCCCCCCOc2ccc(C(=N)N)cc2I)cc1 [Compound 2]	more selective for matriptase versus thrombin	decreased potency for thrombin ([1]; compared with compound 1): approximately 4 fold; improved potency for matriptase ([2]; compared with compound 1): approximately 5 fold
		1160 nM		N=C(N)c1ccc(OCCCCCOc2ccc(C(=N)N)cc2)cc1 [Compound 3]		
28400 nM		4500 nM		N=C(N)c1ccc(/N=N/c2c(O)ccc3cc4c(/N=N/c5ccc(C(=N)N)cc5)c(O)ccc4cc23)cc1 [Compound 4]		
946 nM	< 1000 nM	535 nM	1570 nM	N=C(N)c1ccc(OCCCOc2ccc(C(=N)N)cc2Br)c(Br)c1 [Compound 5]		more potent against matriptase ([2]; compared with 1 and 3): approximately 2 fold
				CC(=O)N[C@@H](CC(C)C)C(=O)N[C@@H](CC(C)C)C(=O)N[C@H](C=O)CCCNC(=N)N [leupeptin]		inhibition of matriptase enzyme activity [4]: can also inhibit matriptase enzyme activity
				ecotin		growth of PC-3 prostate cancer tumors [5]: retards the growth
				hexamidine [Compound 1]		Km [4, 8]: 4.89 µM; Vmax [4, 8]: 654 nM Amc/min

Compound	Ki [1]	Ki [2, 6]	Ki [2, 7]	Ki [3]	selectivity matriptase versus thrombin/uPA [2]	further results
N=C(N)c1ccc(Oc2ccc(Oc3ccc(C(=N)N)cc3)cc2)cc1 [Compound 7]	2670 nM	< 1000 nM	208 nM	1950 nM	most selective inhibitor for matriptase; also recorded: matriptase selective; also recorded: most selective compound	selectivity between matriptase and thrombin ([1]; ratio of Ki values): 13 fold; selectivity between matriptase and uPA (less potent for uPA than for matriptase) [3]: 9 fold
